Measurements reported in the supplement of paper PMC10307832.

Columns and labels:
Experiment in all cases: relative viability (nuclei count vs DMSO), 5 days (fraction); higher = more cells survive
[1] = compound: COc1cc2/c(=N/c3ccc(Br)cc3F)nc[nH]c2cc1OCC1CCN(C)CC1 [Vandetanib] + Nc1ncn([C@H]2C[C@H](O)[C@@H](CO)O2)c(=O)n1 [Decitabine] (partner 2 µM)
How it was run: (§1)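 Each reported value is a median over duplicate plates. It expresses relative viability: treated-well nuclei count divided by vehicle-well nuclei count. Lung cancer cell lines in 1536-well plates were dosed by pin tool a day after seeding, alone with one drug or with a fixed anchor-drug dose plus five library-drug doses (not always all listed) in √10 steps, and nuclei were counted after 5 days.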

[2] = compound: C1=CC=C2C(=C1)N=C(S2)C(C#N)C3=NC(=NC=C3)NCCC4=CN=CC=C4 + COc1cccc2cc(-c3nc([C@H]4CC[C@H](C(=O)O)CC4)n4ncnc(N)c34)[nH]c12 [OSI-027] (partner 0.5 µM)
How it was run: as §1

[3] = compound: COc1cc2/c(=N/c3ccc(Br)cc3F)nc[nH]c2cc1OCC1CCN(C)CC1 [Vandetanib] + CS(=O)(=O)CCNCc1ccc(-c2ccc3ncnc(Nc4ccc(OCc5cccc(F)c5)c(Cl)c4)c3c2)o1 [Lapatinib] (partner 2 µM)
How it was run: as §1

[4] = compound: C1=CC=C2C(=C1)N=C(S2)C(C#N)C3=NC(=NC=C3)NCCC4=CN=CC=C4 + O=C(CCCCCCC(=O)Nc1ccccc1)NO [Vorinostat] (partner 1 µM)
How it was run: as §1

Cell Line	relative viability ([1]; first compound 0.02 µM)	relative viability ([1]; first compound 0.06325 µM)	relative viability ([1]; first compound 0.2 µM)	relative viability ([1]; first compound 0.6325 µM)	relative viability ([1]; first compound 2 µM)	relative viability ([2]; first compound 0.005 µM)	relative viability ([2]; first compound 0.01581 µM)	relative viability ([2]; first compound 0.05 µM)	relative viability ([2]; first compound 0.1581 µM)	relative viability ([2]; first compound 0.5 µM)	relative viability ([3]; first compound 0.02 µM)	relative viability ([3]; first compound 0.06325 µM)	relative viability ([3]; first compound 0.2 µM)	relative viability ([3]; first compound 0.6325 µM)	relative viability ([3]; first compound 2 µM)	relative viability ([4]; first compound 0.005 µM)	relative viability ([4]; first compound 0.01581 µM)	relative viability ([4]; first compound 0.05 µM)	relative viability ([4]; first compound 0.1581 µM)	relative viability ([4]; first compound 0.5 µM)
HCC-366	0.291	0.355	0.354	0.332	0.347	0.482	0.961	0.856	1.05	0.672	0.931	0.978	1.18	1.18	1.09	0.336	0.361	0.385	0.519	0.365
HCC-827	0.361	0.302	0.335	0.191	0.152	0.617	1.11	0.854	0.978	0.783	0.195	0.18	0.183	0.181	0.185	0.675	0.931	0.838	1.07	0.922
HOP-62	0.244	0.267	0.208	0.202	0.249	0.669	0.828	0.762	0.989	0.793	0.81	0.923	1.07	0.932	0.892	0.49	0.626	0.453	0.685	0.642
IA-LM	–	–	–	–	–	–	–	–	–	–	0.762	0.737	0.953	0.798	0.987	0.742	1.09	1.02	1.11	0.613
LC-2-ad	0.707	0.729	0.89	0.836	0.616	0.724	0.803	0.912	0.875	0.695	0.896	0.949	0.506	0.783	0.711	0.621	0.704	0.676	0.823	0.612
LCLC-97TM1	0.223	0.22	0.209	0.264	0.234	0.562	0.701	0.537	0.607	0.572	0.864	1.05	0.909	0.841	0.8	0.608	0.694	0.724	0.725	0.624
LCLC-103H	0.733	0.729	0.659	0.75	0.762	0.387	0.521	0.41	0.505	0.397	–	–	–	–	–	0.712	0.664	0.718	0.878	0.76
LK-2	0.307	0.293	0.317	0.315	0.271	0.2	0.187	0.201	0.189	0.195	0.999	0.964	0.716	1.05	0.636	0.294	0.278	0.369	0.333	0.355
LOU-NH91	0.816	0.734	0.681	0.679	0.66	0.673	0.689	0.703	0.733	0.729	0.739	0.761	0.783	0.764	0.799	0.907	0.826	0.769	1.03	0.837
LU99A	0.804	0.828	0.676	0.834	0.771	0.269	0.278	0.297	0.323	0.3	0.973	0.869	1.01	0.828	1.04	0.417	0.529	–	0.622	0.477
NCI-H441	0.243	0.22	0.222	0.277	0.217	–	0.669	0.556	0.719	0.487	–	–	–	–	–	0.587	0.84	0.818	0.789	0.643
NCI-H522	0.619	0.691	0.717	0.768	0.646	0.674	0.681	0.717	0.713	0.685	–	–	–	–	–	0.824	0.774	0.875	0.712	0.864
NCI-H1299	–	–	–	–	–	–	–	–	–	–	0.965	0.95	0.892	0.968	0.948	–	–	–	–	–
NCI-H1563	–	–	–	–	–	0.643	0.744	0.705	0.838	0.618	0.957	0.882	1.39	0.953	1.03	–	–	–	–	–
NCI-H1623	–	–	–	–	–	0.488	0.386	0.397	0.553	0.345	–	–	–	–	–	–	–	–	–	–
NCI-H1648	0.55	0.52	0.479	0.49	0.418	0.238	0.239	0.289	0.26	0.28	–	–	–	–	–	–	0.448	–	0.622	0.417
NCI-H1703	–	–	–	–	–	–	–	–	–	–	1.13	–	1.24	0.932	0.417	–	–	–	–	–
NCI-H1792	0.487	0.469	0.698	0.53	0.444	0.648	0.64	0.759	1.16	0.36	0.886	0.824	0.869	0.874	0.862	–	–	–	–	–
NCI-H2228	–	–	–	–	–	0.404	0.556	0.561	0.578	0.492	1.32	0.903	–	1.32	1.23	0.449	0.629	0.83	0.646	0.664
NCI-H2342	0.727	0.75	0.8	0.699	0.723	0.532	0.64	0.569	0.671	0.578	–	–	–	–	–	0.621	0.811	0.737	0.776	0.756
SW 900	0.406	0.39	–	0.48	0.437	0.48	0.448	0.506	0.763	0.424	–	–	–	–	–	0.495	0.42	0.67	0.693	0.456
